Results reported in PubChem BioAssay AID2060895 (Molecular Pharmacology Branch, DTP, NCI, 2025).
Values belong to the compound of their own block, whether it stands above or below them.

Test system: PDC 899932-113-R3-J6 complex spheroid viability
Assay: Anticancer human tumor 899932-113-R3-J6-PDC patient-derived melanoma cell line growth inhibition [RAS]
Conditions: for IC50: curve of first compound; for viability, T/C: stronger effect = lower value
Outline: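 Agents were tested in combination matrices in half-log decrements from a top concentration at or near clinical Cmax (10 microM if undetermined). Targets were multi-cell spheroids of tumour lines plus HUVEC and MSC stromal cells.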

[1] = second compound 0.00316 µM, first compound 0.0316 µM
[2] = second compound 0.00316 µM, first compound 0.1 µM
[3] = second compound 0.00316 µM, first compound 0.316 µM
[4] = second compound 0.00316 µM, first compound 1 µM
[5] = second compound 0.00316 µM, first compound 3.16 µM
[6] = second compound 0.00316 µM, first compound 10 µM
[7] = second compound 0.01 µM, first compound 0.0316 µM
[8] = second compound 0.01 µM, first compound 0.1 µM
[9] = second compound 0.01 µM, first compound 0.316 µM
[10] = second compound 0.01 µM, first compound 1 µM
[11] = second compound 0.01 µM, first compound 3.16 µM
[12] = second compound 0.01 µM, first compound 10 µM
[13] = second compound 0.0316 µM, first compound 0.0316 µM
[14] = second compound 0.0316 µM, first compound 0.1 µM
[15] = second compound 0.0316 µM, first compound 0.316 µM
[16] = second compound 0.0316 µM, first compound 1 µM
[17] = second compound 0.0316 µM, first compound 3.16 µM
[18] = second compound 0.0316 µM, first compound 10 µM
[19] = second compound 0.1 µM, first compound 0.0316 µM
[20] = second compound 0.1 µM, first compound 0.1 µM
[21] = second compound 0.1 µM, first compound 0.316 µM
[22] = second compound 0.1 µM, first compound 1 µM
[23] = second compound 0.1 µM, first compound 3.16 µM
[24] = second compound 0.1 µM, first compound 10 µM
[25] = second compound 0.316 µM, first compound 0.0316 µM
[26] = second compound 0.316 µM, first compound 0.1 µM
[27] = second compound 0.316 µM, first compound 0.316 µM
[28] = second compound 0.316 µM, first compound 1 µM
[29] = second compound 0.316 µM, first compound 3.16 µM
[30] = second compound 0.316 µM, first compound 10 µM
[31] = second compound 1 µM, first compound 0.0316 µM
[32] = second compound 1 µM, first compound 0.1 µM
[33] = second compound 1 µM, first compound 0.316 µM
[34] = second compound 1 µM, first compound 1 µM
[35] = second compound 1 µM, first compound 3.16 µM
[36] = second compound 1 µM, first compound 10 µM
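For viability, T/C in this document: spheroids exposed to agents for seven days before readout; 100% = DMSO vehicle control wells.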

Structure (SMILES): CC1(O)CCCC1n1c(=O)c(C(F)F)cc2cnc(NC3CCN(S(C)(=O)=O)CC3)nc21 (stereo not given) + C=CC(=O)N1CCN(c2nc(OCC3CCCN3C)nc3c(F)c(-c4nc(N)cc(C)c4C(F)(F)F)c(Cl)cc23)C(C)C1
IC50 (second compound 0.00316 µM): 1840 nM | IC50 (second compound 0.01 µM): 4020 nM | IC50 (second compound 0.0316 µM): 2480 nM | IC50 (second compound 0.1 µM): 1820 nM | IC50 (second compound 0.316 µM): 3290 nM | IC50 (second compound 1 µM): 3300 nM | viability, T/C [1]: 99% | viability, T/C [2]: 73.6% | viability, T/C [3]: 62% | viability, T/C [4]: 63.5% | viability, T/C [5]: 57.3% | viability, T/C [6]: 21.4% | viability, T/C [7]: 92% | viability, T/C [8]: 81.3% | viability, T/C [9]: 71.1% | viability, T/C [10]: 69.1% | viability, T/C [11]: 64.5% | viability, T/C [12]: 19.5% | viability, T/C [13]: 94% | viability, T/C [14]: 88.2% | viability, T/C [15]: 65.8% | viability, T/C [16]: 66.2% | viability, T/C [17]: 53.1% | viability, T/C [18]: 19.2% | viability, T/C [19]: 96.2% | viability, T/C [20]: 80.4% | viability, T/C [21]: 62.2% | viability, T/C [22]: 62.7% | viability, T/C [23]: 54.5% | viability, T/C [24]: 21.5% | viability, T/C [25]: 94.7% | viability, T/C [26]: 80.1% | viability, T/C [27]: 65% | viability, T/C [28]: 67.8% | viability, T/C [29]: 60% | viability, T/C [30]: 17.3% | viability, T/C [31]: 88.5% | viability, T/C [32]: 81.2% | viability, T/C [33]: 63.7% | viability, T/C [34]: 62% | viability, T/C [35]: 62% | viability, T/C [36]: 14%

Structure (SMILES): Cc1nc(N2CCC3(CC2)COC(C)C3N)c(CO)nc1Sc1ccnc(N)c1Cl (stereo not given) + C=CC(=O)N1CCN(c2nc(OCC3CCCN3C)nc3c(F)c(-c4nc(N)cc(C)c4C(F)(F)F)c(Cl)cc23)C(C)C1
IC50 (second compound 0.00316 µM): > 10000 nM | IC50 (second compound 0.01 µM): > 10000 nM | IC50 (second compound 0.0316 µM): > 10000 nM | IC50 (second compound 0.1 µM): > 10000 nM | IC50 (second compound 0.316 µM): > 10000 nM | IC50 (second compound 1 µM): > 10000 nM | viability, T/C [1]: 110% | viability, T/C [2]: 96.4% | viability, T/C [3]: 102% | viability, T/C [4]: 108% | viability, T/C [5]: 115% | viability, T/C [6]: 127% | viability, T/C [7]: 106% | viability, T/C [8]: 109% | viability, T/C [9]: 113% | viability, T/C [10]: 107% | viability, T/C [11]: 119% | viability, T/C [12]: 118% | viability, T/C [13]: 99.7% | viability, T/C [14]: 98.5% | viability, T/C [15]: 117% | viability, T/C [16]: 108% | viability, T/C [17]: 120% | viability, T/C [18]: 126% | viability, T/C [19]: 99.5% | viability, T/C [20]: 108% | viability, T/C [21]: 107% | viability, T/C [22]: 113% | viability, T/C [23]: 120% | viability, T/C [24]: 124% | viability, T/C [25]: 126% | viability, T/C [26]: 111% | viability, T/C [27]: 108% | viability, T/C [28]: 106% | viability, T/C [29]: 108% | viability, T/C [30]: 110% | viability, T/C [31]: 113% | viability, T/C [32]: 106% | viability, T/C [33]: 114% | viability, T/C [34]: 116% | viability, T/C [35]: 110% | viability, T/C [36]: 114%

Structure (SMILES): NC1c2ccccc2OC12CCN(c1cnc3c(N4CCCc5ncccc54)n[nH]c3n1)CC2 (stereo not given) + C=CC(=O)N1CCN(c2nc(OCC3CCCN3C)nc3c(F)c(-c4nc(N)cc(C)c4C(F)(F)F)c(Cl)cc23)C(C)C1
IC50 (second compound 0.00316 µM): > 10000 nM | IC50 (second compound 0.01 µM): > 10000 nM | IC50 (second compound 0.0316 µM): > 10000 nM | IC50 (second compound 0.1 µM): > 10000 nM | IC50 (second compound 0.316 µM): > 10000 nM | IC50 (second compound 1 µM): > 10000 nM | viability, T/C [1]: 113% | viability, T/C [2]: 107% | viability, T/C [3]: 114% | viability, T/C [4]: 113% | viability, T/C [5]: 108% | viability, T/C [6]: 89.9% | viability, T/C [7]: 108% | viability, T/C [8]: 104% | viability, T/C [9]: 115% | viability, T/C [10]: 102% | viability, T/C [11]: 115% | viability, T/C [12]: 106% | viability, T/C [13]: 116% | viability, T/C [14]: 107% | viability, T/C [15]: 115% | viability, T/C [16]: 125% | viability, T/C [17]: 121% | viability, T/C [18]: 99.7% | viability, T/C [19]: 107% | viability, T/C [20]: 106% | viability, T/C [21]: 114% | viability, T/C [22]: 114% | viability, T/C [23]: 102% | viability, T/C [24]: 104% | viability, T/C [25]: 110% | viability, T/C [26]: 116% | viability, T/C [27]: 112% | viability, T/C [28]: 111% | viability, T/C [29]: 115% | viability, T/C [30]: 97.1% | viability, T/C [31]: 114% | viability, T/C [32]: 105% | viability, T/C [33]: 119% | viability, T/C [34]: 113% | viability, T/C [35]: 112% | viability, T/C [36]: 86.1%

Continued by falling IC50 (second compound 0.00316 µM), values first:

IC50 (second compound 0.00316 µM): 1540 nM | IC50 (second compound 0.01 µM): 1720 nM | IC50 (second compound 0.0316 µM): 1680 nM | IC50 (second compound 0.1 µM): 1730 nM | IC50 (second compound 0.316 µM): 1720 nM | IC50 (second compound 1 µM): 1610 nM
Structure (SMILES): CCC(CC)c1cc(NC2CCC(N)C2)n2nccc2n1 (stereo not given) + C=CC(=O)N1CCN(c2nc(OCC3CCCN3C)nc3c(F)c(-c4nc(N)cc(C)c4C(F)(F)F)c(Cl)cc23)C(C)C1
viability, T/C [1]: 101% | viability, T/C [2]: 96.1% | viability, T/C [3]: 105% | viability, T/C [4]: 79.9% | viability, T/C [5]: 0.74% | viability, T/C [6]: 0.24% | viability, T/C [7]: 107% | viability, T/C [8]: 98.1% | viability, T/C [9]: 98.1% | viability, T/C [10]: 93.9% | viability, T/C [11]: 0.74% | viability, T/C [12]: 0.62% | viability, T/C [13]: 116% | viability, T/C [14]: 105% | viability, T/C [15]: 99% | viability, T/C [16]: 90% | viability, T/C [17]: 0.75% | viability, T/C [18]: 0.23% | viability, T/C [19]: 106% | viability, T/C [20]: 111% | viability, T/C [21]: 94.1% | viability, T/C [22]: 94.1% | viability, T/C [23]: 0.78% | viability, T/C [24]: 1.07% | viability, T/C [25]: 96% | viability, T/C [26]: 99.3% | viability, T/C [27]: 102% | viability, T/C [28]: 93.9% | viability, T/C [29]: 0.72% | viability, T/C [30]: 0.84% | viability, T/C [31]: 109% | viability, T/C [32]: 103% | viability, T/C [33]: 98.2% | viability, T/C [34]: 84.8% | viability, T/C [35]: 0.86% | viability, T/C [36]: 0.27%

IC50 (second compound 0.00316 µM): 414 nM | IC50 (second compound 0.01 µM): 457 nM | IC50 (second compound 0.0316 µM): 447 nM | IC50 (second compound 0.1 µM): 429 nM | IC50 (second compound 0.316 µM): 467 nM | IC50 (second compound 1 µM): 393 nM
Structure (SMILES): CCN1CCN(Cc2ccc(Nc3ncc(F)c(-c4cc(F)c5nc(C)n(C(C)C)c5c4)n3)nc2)CC1 + C=CC(=O)N1CCN(c2nc(OCC3CCCN3C)nc3c(F)c(-c4nc(N)cc(C)c4C(F)(F)F)c(Cl)cc23)C(C)C1
viability, T/C (second compound 0.00316 µM, first compound 0.00316 µM): 102% | viability, T/C (second compound 0.00316 µM, first compound 0.01 µM): 92.3% | viability, T/C [1]: 88.7% | viability, T/C [2]: 78% | viability, T/C [3]: 62.2% | viability, T/C [4]: 18.8% | viability, T/C (second compound 0.01 µM, first compound 0.00316 µM): 99.9% | viability, T/C (second compound 0.01 µM, first compound 0.01 µM): 98.5% | viability, T/C [7]: 95.6% | viability, T/C [8]: 85.5% | viability, T/C [9]: 63% | viability, T/C [10]: 22.6% | viability, T/C (second compound 0.0316 µM, first compound 0.00316 µM): 98.4% | viability, T/C (second compound 0.0316 µM, first compound 0.01 µM): 101% | viability, T/C [13]: 103% | viability, T/C [14]: 89.5% | viability, T/C [15]: 63% | viability, T/C [16]: 20.6% | viability, T/C (second compound 0.1 µM, first compound 0.00316 µM): 109% | viability, T/C (second compound 0.1 µM, first compound 0.01 µM): 94% | viability, T/C [19]: 85.7% | viability, T/C [20]: 83% | viability, T/C [21]: 61.2% | viability, T/C [22]: 24% | viability, T/C (second compound 0.316 µM, first compound 0.00316 µM): 101% | viability, T/C (second compound 0.316 µM, first compound 0.01 µM): 106% | viability, T/C [25]: 90.5% | viability, T/C [26]: 81% | viability, T/C [27]: 65.9% | viability, T/C [28]: 23.9% | viability, T/C (second compound 1 µM, first compound 0.00316 µM): 107% | viability, T/C (second compound 1 µM, first compound 0.01 µM): 104% | viability, T/C [31]: 93% | viability, T/C [32]: 72.8% | viability, T/C [33]: 64.3% | viability, T/C [34]: 18%
